This note sets out measurements from patent US20230077362A1 (CORTEVA AGRISCIENCE LLC, priority 2019, published 2023).

Assay [1] relates to Beet Armyworm (Spodoptera exigua) ("BAW"), second instar larvae. As to the kind of experiment: Bioassay on beet armyworm (BAW), 128-well diet tray assay. As to conditions: for pest or weed control at 50 µg/cm2: Spodoptera exigua; for BAW rating: Table ABC, species BAW, C = not tested, D = no activity noticed. Format: in vivo. The gist of the method: (§1)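 After sealing with a clear self-adhesive lid, the trays are incubated at 25° C. with 14 h light and 10 h dark for 5 to 7 days; mortality in each well is recorded as a percentage and averaged across the eight wells.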

Assay [2] deals with Cabbage Looper (Trichoplusia ni) ("CL"), second instar larvae. Put plainly: Bioassay on cabbage looper (CL), 128-well diet tray assay. Conditions: for pest or weed control at 50 µg/cm2: Trichoplusia ni; for CL rating: Table ABC, species CL, C = not tested, D = no activity noticed. Format: in vivo. The gist of the method: as §1
[3] abbreviates: read-out: BAW (Biological Results, rating).
Where [4] appears, read: read-out: CL (Biological Results, rating).

Read-outs that look alike come from different tables or passages of the source.

`Cc1ccc(COCC(F)(F)F)c(N2C(=O)CS/C2=N\C(=O)Nc2ccc(-c3ncn(-c4ccc(OC(F)(F)F)cn4)n3)cc2C)c1` [Compound J241, (Z)-1-(3-(5-Methyl-2-((2,2,2-trifluoroethoxy)methyl)phenyl)-4-oxothiazolidin-2-ylidene)-3-(2-methyl-4-(1-(5-(trifluoromethoxy)pyridin-2-yl)-1H-1,2,4-triazol-3-yl)phenyl)urea]: the pest or weed control at 50 µg/cm2 in assay [1] (setting [3]) and in assay [2] (setting [4]) was 50 to 100% each time.
As to `Cc1ccc(COCC(Cl)Cl)c(N2C(=O)CS/C2=N\C(=O)Nc2ccc(-c3ncn(-c4ccc(C(F)(F)F)cc4)n3)cc2F)c1` [Compound J559], the BAW rating result in assay [1] was “A (50-100)”. For the same molecule, the CL rating result in assay [2] was “A (50-100)”.
For `Cc1ccc(COCC(F)(F)F)c(N2C(=O)CS/C2=N\C(=O)Nc2ccc(-c3cn(-c4ccc(C(F)(F)F)cc4)cn3)cc2)c1` [Compound J516, (Z)-1-(3-(5-Methyl-2-((2,2,2-trifluoroethoxy)methyl)phenyl)-4-oxothiazolidin-2-ylidene)-3-(4-(1-(4-(trifluoromethyl)phenyl)-1H-imidazol-4-yl)phenyl)urea], the pest or weed control at 50 µg/cm2 in assay [1] (read-out: BAW rating) and in assay [2] (read-out: CL rating) was 50 to 100% throughout.
Turning to `Cc1cc(-c2ncn(-c3ccc(OC(F)(F)F)cn3)n2)ccc1NC(=O)/N=C1\SCC(=O)N1c1cc(N(C)C)ccc1C(C)C` [Compound J251, (Z)-1-(3-(5-(Dimethylamino)-2-isopropylphenyl)-4-oxothiazolidin-2-ylidene)-3-(2-methyl-4-(1-(5-(trifluoromethoxy)pyridin-2-yl)-1H-1,2,4-triazol-3-yl)phenyl)urea], the pest or weed control at 50 µg/cm2 in assay [1] (setting [3]) and in assay [2] (setting [4]) was 50 to 100% each time.
Consider `Cc1ccc(COCC(F)(F)F)c(N2C(=O)CS/C2=N\C(=O)Nc2ccc(-c3ncn(-c4cccc(OC(F)(F)F)c4)n3)cc2F)c1` [Compound J705], for which the BAW rating entry in assay [1] is recorded as “A (50-100)”. For the same molecule, the CL rating entry in assay [2] is “A (50-100)”.
For `Cc1ccc(C(C)C)c(N2C(=O)CS/C2=N\C(=O)Nc2ccc(-c3ncn(-c4ccc(C(F)(F)F)cn4)n3)cc2)c1` [Compound J337, (Z)-1-(3-(2-Isopropyl-5-methylphenyl)-4-oxothiazolidin-2-ylidene)-3-(4-(1-(5-(trifluoromethyl)pyridin-2-yl)-1H-1,2,4-triazol-3-yl)phenyl)urea], the pest or weed control at 50 µg/cm2 in assay [1] (setting [3]) and in assay [2] (setting [4]) was 50 to 100% in each case.
Take `Cc1ccc(OCCC(F)(F)F)c(N2C(=O)CS/C2=N\C(=O)Nc2ccc(-c3ncn(-c4ccc(SC(F)(F)F)cc4)n3)cc2F)c1` [Compound J333, (Z)-1-(2-Fluoro-4-(1-(4-((trifluoromethyl)thio)phenyl)-1H-1,2,4-triazol-3-yl)phenyl)-3-(3-(5-methyl-2-(3,3,3-trifluoropropoxy)phenyl)-4-oxothiazolidin-2-ylidene)urea]: the pest or weed control at 50 µg/cm2 in assay [1] (setting [3]) and in assay [2] (setting [4]) was 50 to 100% throughout.
With `Cc1ccc(C(C)C)c(N2C(=O)CS/C2=N\C(=O)Nc2ccc(-c3ncn(-c4ccc(OC(F)(F)F)cc4)n3)cc2C(C)C)c1` [Compound J99, (Z)-1-(2-Isopropyl-4-(1-(4-(trifluoromethoxy)phenyl)-1H-1,2,4-triazol-3-yl)phenyl)-3-(3-(2-isopropyl-5-methylphenyl)-4-oxothiazolidin-2-ylidene)urea], the pest or weed control at 50 µg/cm2 in assay [1] (setting [3]) and in assay [2] (setting [4]) was 50 to 100% throughout.
As to `CC(C)c1ccc(N(C)C)cc1N1C(=O)CS/C1=N\C(=O)Nc1ccc(-c2ncn(-c3ccc(OC(F)(F)F)cn3)n2)cc1F` [Compound J238, (Z)-1-(3-(5-(Dimethylamino)-2-isopropylphenyl)-4-oxothiazolidin-2-ylidene)-3-(2-fluoro-4-(1-(5-(trifluoromethoxy)pyridin-2-yl)-1H-1,2,4-triazol-3-yl)phenyl)urea], the pest or weed control at 50 µg/cm2 in assay [1] (setting [3]) and in assay [2] (setting [4]) was 50 to 100% each time.
